Reference: US20140249135A1, “PIM KINASE INHIBITORS AND METHODS OF THEIR USE” (NOVARTIS AG, priority 2007, published 2014)
Read-outs that look alike come from different tables or passages of the source.

Columns and labels:
Pim1 kinase = Pim1 kinase (Homo sapiens, UniProt P11309); test: Pim1 ATP depletion assay; assay type: biochemical; settings: Pim1 ATP depletion assay;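 also: Luciferase-luciferin luminescence readout of residual ATP after PIM1 transfers phosphate to a peptide substrate, 40 µM ATP added, reaction run to roughly half ATP consumption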
Chain of Pim1 kinase (P11309 whole entry): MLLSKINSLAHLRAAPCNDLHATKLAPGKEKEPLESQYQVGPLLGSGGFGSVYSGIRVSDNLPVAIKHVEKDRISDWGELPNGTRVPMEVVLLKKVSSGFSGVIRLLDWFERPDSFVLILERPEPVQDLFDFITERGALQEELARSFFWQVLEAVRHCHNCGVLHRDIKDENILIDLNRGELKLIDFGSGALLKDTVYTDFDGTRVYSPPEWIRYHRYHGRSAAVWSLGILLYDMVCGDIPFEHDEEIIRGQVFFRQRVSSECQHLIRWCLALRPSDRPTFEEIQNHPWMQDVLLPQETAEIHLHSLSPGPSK

Pim2 kinase = Pim2 kinase (Homo sapiens, UniProt Q9P1W9); test: Pim2 ATP depletion assay; assay type: biochemical;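 also: Luciferase-based luminescent readout of ATP remaining after PIM2 phosphorylates a BAD peptide, final 5 nM enzyme, 4 µM ATP, 10 µM peptide, 2.5% DMSO, run to roughly half ATP consumption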
Chain of Pim2 kinase (Q9P1W9 whole entry): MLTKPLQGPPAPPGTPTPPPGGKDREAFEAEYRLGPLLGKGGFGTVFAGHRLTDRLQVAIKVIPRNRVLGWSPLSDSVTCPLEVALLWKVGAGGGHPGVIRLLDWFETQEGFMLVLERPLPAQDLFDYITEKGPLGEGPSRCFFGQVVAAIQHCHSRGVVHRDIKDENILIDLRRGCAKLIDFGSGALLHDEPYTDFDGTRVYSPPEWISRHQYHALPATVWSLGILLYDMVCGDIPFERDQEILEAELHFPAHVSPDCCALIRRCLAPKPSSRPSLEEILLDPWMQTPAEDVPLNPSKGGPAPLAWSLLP

Pim3 kinase = Pim3 kinase (Homo sapiens, UniProt Q86V86); test: Pim3 ATP depletion assay; assay type: biochemical
[1] = target: T1, human full length PKCE enzyme (Homo sapiens, UniProt Q02156); test: In vitro PKCE assay; assay type: biochemical; settings: 10 nM enzyme, 40 uM peptide substrate, 20 uM ATP, KinaseGlo Plus readout; read-out: PKCε IC50
T1 construct: human full length PKCE enzyme purchased from InVitrogen; purchased InVitrogen
T1 sequence (Q02156 1-737): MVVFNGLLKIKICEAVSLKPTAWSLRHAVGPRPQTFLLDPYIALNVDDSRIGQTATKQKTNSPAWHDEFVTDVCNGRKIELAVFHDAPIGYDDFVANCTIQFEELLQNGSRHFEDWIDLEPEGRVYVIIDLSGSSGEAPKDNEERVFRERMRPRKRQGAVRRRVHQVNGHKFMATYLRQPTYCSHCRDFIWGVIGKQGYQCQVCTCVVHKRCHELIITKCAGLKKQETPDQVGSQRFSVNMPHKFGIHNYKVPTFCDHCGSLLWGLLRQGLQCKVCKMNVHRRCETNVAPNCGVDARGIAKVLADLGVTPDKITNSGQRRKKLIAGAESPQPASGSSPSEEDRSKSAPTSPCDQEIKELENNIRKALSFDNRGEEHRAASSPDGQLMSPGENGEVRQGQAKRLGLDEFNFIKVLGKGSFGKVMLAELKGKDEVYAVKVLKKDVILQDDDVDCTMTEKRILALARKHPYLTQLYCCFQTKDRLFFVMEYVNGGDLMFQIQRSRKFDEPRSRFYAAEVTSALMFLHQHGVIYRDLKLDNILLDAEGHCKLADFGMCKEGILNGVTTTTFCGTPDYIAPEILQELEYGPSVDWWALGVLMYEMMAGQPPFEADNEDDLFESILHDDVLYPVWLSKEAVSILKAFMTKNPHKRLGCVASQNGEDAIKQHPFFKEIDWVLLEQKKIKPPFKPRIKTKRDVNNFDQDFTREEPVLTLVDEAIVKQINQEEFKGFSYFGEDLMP

KDR kinase = KDR kinase (Homo sapiens, UniProt P35968); test: KDR AlphaScreen assay; settings: KDR IC50 (μM)
Chain of KDR kinase (P35968 20-1356): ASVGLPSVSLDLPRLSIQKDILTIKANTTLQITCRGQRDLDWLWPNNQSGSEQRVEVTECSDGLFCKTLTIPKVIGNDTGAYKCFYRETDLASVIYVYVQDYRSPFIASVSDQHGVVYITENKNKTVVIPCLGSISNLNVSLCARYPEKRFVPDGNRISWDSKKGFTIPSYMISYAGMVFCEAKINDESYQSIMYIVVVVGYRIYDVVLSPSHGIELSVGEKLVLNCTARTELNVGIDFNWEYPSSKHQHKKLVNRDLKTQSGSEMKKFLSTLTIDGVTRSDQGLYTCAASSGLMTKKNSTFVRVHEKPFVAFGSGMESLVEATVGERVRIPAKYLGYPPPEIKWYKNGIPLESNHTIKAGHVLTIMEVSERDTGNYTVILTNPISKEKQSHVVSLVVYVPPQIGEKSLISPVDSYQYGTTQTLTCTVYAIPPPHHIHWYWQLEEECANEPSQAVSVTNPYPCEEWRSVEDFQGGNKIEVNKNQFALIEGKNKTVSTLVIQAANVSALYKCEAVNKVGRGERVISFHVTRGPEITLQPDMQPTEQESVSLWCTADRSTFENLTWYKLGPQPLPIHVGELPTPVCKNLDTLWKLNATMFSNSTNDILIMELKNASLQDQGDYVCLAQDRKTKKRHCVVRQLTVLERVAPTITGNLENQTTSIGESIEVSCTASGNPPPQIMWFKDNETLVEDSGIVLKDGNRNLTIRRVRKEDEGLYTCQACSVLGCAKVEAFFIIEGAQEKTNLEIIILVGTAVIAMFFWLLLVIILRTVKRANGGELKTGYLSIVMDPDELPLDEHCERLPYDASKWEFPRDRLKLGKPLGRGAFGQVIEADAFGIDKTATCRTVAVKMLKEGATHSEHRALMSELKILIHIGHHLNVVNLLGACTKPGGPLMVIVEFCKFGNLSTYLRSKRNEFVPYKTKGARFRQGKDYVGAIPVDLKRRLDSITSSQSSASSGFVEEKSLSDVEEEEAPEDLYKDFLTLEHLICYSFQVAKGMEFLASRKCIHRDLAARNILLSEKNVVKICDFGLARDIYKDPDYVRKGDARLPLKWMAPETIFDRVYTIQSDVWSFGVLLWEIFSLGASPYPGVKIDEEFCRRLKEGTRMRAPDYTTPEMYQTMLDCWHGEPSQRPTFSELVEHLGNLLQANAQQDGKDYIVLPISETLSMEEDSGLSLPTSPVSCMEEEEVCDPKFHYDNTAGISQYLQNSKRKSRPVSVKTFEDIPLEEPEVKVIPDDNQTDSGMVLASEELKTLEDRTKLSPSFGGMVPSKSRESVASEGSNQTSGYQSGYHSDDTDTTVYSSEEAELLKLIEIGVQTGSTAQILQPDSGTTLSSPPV

## CC(=O)NC1CCCN(c2ccncc2NC(=O)c2nc(Br)cnc2N)C1 (stereo not shown) [Example 304, N-(4-(3-acetamidopiperidin-1-yl)pyridin-3-yl)-3-amino-6-bromopyrazine-2-carboxamide]
Pim1 kinase; read-out: IC50 (μM) PIM1
  IC50: < 1 µM
Pim2 kinase; read-out: IC50 (μM) PIM2
  IC50: > 25 µM
Pim3 kinase; read-out: IC50 (μM) PIM3
  IC50: 1 to 10 µM
[1]
  IC50: 1000 to 10000 nM
KDR kinase
  IC50: < 1 µM

## CN1CCC(NC2CCCN(c3ccncc3NC(=O)c3nc(Br)cnc3N)C2)CC1 (stereo not shown) [Example 597, 3-amino-6-bromo-N-(4-(3-(1-methylpiperidin-4-ylamino)piperidin-1-yl)pyridin-3-yl)pyrazine-2-carboxamide]
Pim1 kinase; read-out: PIM1 IC50
  IC50: < 1 µM
Pim2 kinase; read-out: PIM2 IC50
  IC50: 1 to 10 µM
Pim3 kinase; read-out: PIM3 IC50
  IC50: < 1 µM
[1]
  IC50: 1000 to 10000 nM
KDR kinase
  IC50: > 25 µM

## COc1ccc(N2CCC(N)CC2)c(NC(=O)c2nc(-c3ccccc3)cnc2N)c1 [Example 437, 3-amino-6-phenyl-pyrazine-2-carboxylic acid [2-(4-amino-piperidin-1-yl)-5-methoxy-phenyl]-amide]
Pim1 kinase; read-out: IC50 (μM) PIM1
  IC50: < 1 µM
Pim2 kinase; read-out: IC50 (μM) PIM2
  IC50: < 1 µM
Pim3 kinase; read-out: IC50 (μM) PIM3
  IC50: < 1 µM
[1]
  IC50: < 1000 nM
KDR kinase
  IC50: 1 to 10 µM

## NC(=O)c1cccc(-c2cnc(N)c(C(=O)Nc3ccccc3N3CCNCC3)n2)c1 [Example 385, 3-amino-6-(3-carbamoyl-phenyl)-pyrazine-2-carboxylic acid (2-piperazin-1-yl-phenyl)-amide]
Pim1 kinase; read-out: IC50 (μM) PIM1
  IC50: < 1 µM
Pim2 kinase; read-out: IC50 (μM) PIM2
  IC50: 1 to 10 µM
Pim3 kinase; read-out: IC50 (μM) PIM3
  IC50: < 1 µM
[1]
  IC50: < 1000 nM
KDR kinase
  IC50: 1 to 10 µM

## Nc1nccnc1C(=O)Nc1cc(C(F)(F)F)ccc1N1CCNCC1 [Example 224, 3-amino-N-[2-piperazin-1-yl-5-(trifluoromethyl)phenyl]pyrazine-2-carboxamide]
Pim1 kinase; read-out: IC50 (μM) PIM1
  IC50: < 1 µM
Pim2 kinase; read-out: IC50 (μM) PIM2
  IC50: > 25 µM
Pim3 kinase; read-out: IC50 (μM) PIM3
  IC50: 1 to 10 µM
[1]
  IC50: 1000 to 10000 nM
KDR kinase
  IC50: > 25 µM

## NCC1CCCN(c2cnc(=O)[nH]c2NC(=O)c2nccnc2N)C1 (stereo not shown) [Example 135, 3-amino-N-{5-[3-(amino-methyl)piperidin-1-yl]-2-oxo-2,3-dihydropyrimidin-4-yl}-pyrazine-2-carboxamide]
Pim1 kinase; read-out: IC50 (μM) PIM1
  IC50: < 1 µM
Pim2 kinase; read-out: IC50 (μM) PIM2
  IC50: < 1 µM
Pim3 kinase; read-out: IC50 (μM) PIM3
  IC50: < 1 µM
[1]
  IC50: < 1000 nM
KDR kinase
  IC50: 1 to 10 µM

## Nc1nccnc1C(=O)Nc1cnccc1N1CCC2(CC1)OCCO2 [Example 127, 3-amino-N-[4-(1,4-dioxa-8-azaspiro[4.5]dec-8-yl)pyridin-3-yl]pyrazine-2-carboxamide]
Pim1 kinase; read-out: IC50 (μM) PIM1
  IC50: 1 to 10 µM
Pim2 kinase; read-out: IC50 (μM) PIM2
  IC50: > 25 µM
Pim3 kinase; read-out: IC50 (μM) PIM3
  IC50: > 25 µM
[1]
  IC50: 1000 to 10000 nM
KDR kinase
  IC50: > 25 µM

## Nc1ccc(-c2cccnc2F)nc1C(=O)Nc1ccncc1N1CCCC(N)C1 (stereo not shown) [Example 552, 5-Amino-2′-fluoro-[2,3′]bi-pyridinyl-6-carboxylic acid (3-amino-3,4,5,6-tetrahydro-2H-[1,3′]bipyridinyl-4′-yl)-amide]
Pim1 kinase; read-out: PIM1 IC50
  IC50: < 1 µM
Pim2 kinase; read-out: PIM2 IC50
  IC50: < 1 µM
Pim3 kinase; read-out: PIM3 IC50
  IC50: < 1 µM
[1]
  IC50: 1000 to 10000 nM
KDR kinase
  IC50: 1 to 10 µM

## Nc1nccnc1C(=O)Nc1cc(Cl)ccc1N1CCCC(N)C1 (stereo not shown) [Example 215, 3-amino-N-[2-(3-aminopiperidin-1-yl)-5-chlorophenyl]pyrazine-2-carboxamide]
Pim1 kinase; read-out: IC50 (μM) PIM1
  IC50: < 1 µM
Pim2 kinase; read-out: IC50 (μM) PIM2
  IC50: 1 to 10 µM
Pim3 kinase; read-out: IC50 (μM) PIM3
  IC50: < 1 µM
[1]
  IC50: 1000 to 10000 nM
KDR kinase
  IC50: > 25 µM

## Nc1ncc(-c2ccccc2F)nc1C(=O)Nc1ccccc1N1CCC(N)CC1 [Example 377, 3-amino-6-(2-fluoro-phenyl)-pyrazine-2-carboxylic acid [2-(4-amino-piperidin-1-yl)-phenyl]-amide]
Pim1 kinase; read-out: IC50 (μM) PIM1
  IC50: < 1 µM
Pim2 kinase; read-out: IC50 (μM) PIM2
  IC50: < 1 µM
Pim3 kinase; read-out: IC50 (μM) PIM3
  IC50: < 1 µM
[1]
  IC50: < 1000 nM
KDR kinase
  IC50: 1 to 10 µM

## NCCC(=O)N1CCN(c2cnc(=O)[nH]c2NC(=O)c2nc(Cl)c(N)nc2N)CC1 [Example 238, 3,5-diamino-6-chloro-pyrazine-2-carboxylic acid {5-[4-(3-amino-propionyl)-piperazin-1-yl]-2-oxo-2,3-dihydro-pyrimidin-4-yl}-amide]
Pim1 kinase; read-out: IC50 (μM) PIM1
  IC50: < 1 µM
Pim2 kinase; read-out: IC50 (μM) PIM2
  IC50: < 1 µM
Pim3 kinase; read-out: IC50 (μM) PIM3
  IC50: < 1 µM
[1]
  IC50: > 25000 nM
KDR kinase
  IC50: < 1 µM

## Nc1ncc(-c2ccoc2)nc1C(=O)Nc1ccccc1N1CCNCC1 [Example 384, 3-amino-6-furan-3-yl-pyrazine-2-carboxylic acid (2-piperazin-1-yl-phenyl)-amide]
Pim1 kinase; read-out: IC50 (μM) PIM1
  IC50: < 1 µM
Pim2 kinase; read-out: IC50 (μM) PIM2
  IC50: 1 to 10 µM
Pim3 kinase; read-out: IC50 (μM) PIM3
  IC50: 1 to 10 µM
[1]
  IC50: < 1000 nM
KDR kinase
  IC50: 1 to 10 µM

## Nc1ncc(-c2ccccc2F)nc1C(=O)Nc1cc(C(=O)c2ccccc2)ccc1N1CCNCC1 [Example 438, 3-amino-6-(2-fluoro-phenyl)-pyrazine-2-carboxylic acid (5-benzoyl-2-piperazin-1-yl-phenyl)-amide]
Pim1 kinase; read-out: IC50 (μM) PIM1
  IC50: 1 to 10 µM
Pim2 kinase; read-out: IC50 (μM) PIM2
  IC50: > 25 µM
Pim3 kinase; read-out: IC50 (μM) PIM3
  IC50: 1 to 10 µM
[1]
  IC50: > 25000 nM
KDR kinase
  IC50: 1 to 10 µM

## NCC1CCCN(c2cnc(=O)[nH]c2NC(=O)c2nc(Cl)c(N)nc2N)C1 (stereo not shown) [Example 236, 3,5-diamino-N-{5-[3-(amino-methyl)piperidin-1-yl]-2-oxo-2,3-dihydropyrimidin-4-yl}-6-chloropyrazine-2-carboxamide]
Pim1 kinase; read-out: IC50 (μM) PIM1
  IC50: < 1 µM
Pim2 kinase; read-out: IC50 (μM) PIM2
  IC50: < 1 µM
Pim3 kinase; read-out: IC50 (μM) PIM3
  IC50: < 1 µM
[1]
  IC50: > 25000 nM
KDR kinase
  IC50: 10 to 25 µM

## Nc1nccnc1C(=O)Nc1cc(Cl)ccc1N1CCNCC1 [Example 213, 3-amino-N-(5-chloro-2-piperazin-1-ylphenyl)pyrazine-2-carboxamide]
Pim1 kinase; read-out: IC50 (μM) PIM1
  IC50: 1 to 10 µM
Pim2 kinase; read-out: IC50 (μM) PIM2
  IC50: > 25 µM
Pim3 kinase; read-out: IC50 (μM) PIM3
  IC50: 1 to 10 µM
[1]
  IC50: 1000 to 10000 nM
KDR kinase
  IC50: > 25 µM

## Cc1ccc(N2CCNCC2)c(NC(=O)c2nccnc2N)c1 [Example 216, 3-amino-N-(5-methyl-2-piperazin-1-ylphenyl)pyrazine-2-carboxamide]
Pim1 kinase; read-out: IC50 (μM) PIM1
  IC50: 1 to 10 µM
Pim2 kinase; read-out: IC50 (μM) PIM2
  IC50: > 25 µM
Pim3 kinase; read-out: IC50 (μM) PIM3
  IC50: 1 to 10 µM
[1]
  IC50: 1000 to 10000 nM
KDR kinase
  IC50: > 25 µM

## Nc1nccnc1C(=O)Nc1cc(C(F)(F)F)ccc1N1CCC(N)CC1 [Example 225, 3-amino-N-[2-(4-aminopiperidin-1-yl)-5-(trifluoromethyl)phenyl]-pyrazine-2-carboxamide]
Pim1 kinase; read-out: IC50 (μM) PIM1
  IC50: < 1 µM
Pim2 kinase; read-out: IC50 (μM) PIM2
  IC50: 10 to 25 µM
Pim3 kinase; read-out: IC50 (μM) PIM3
  IC50: < 1 µM
[1]
  IC50: 1000 to 10000 nM
KDR kinase
  IC50: > 25 µM

## COc1ccc(-c2cnc(N)c(C(=O)Nc3ccccc3N3CCNCC3)n2)cc1 [Example 386, 3-amino-6-(4-methoxy-phenyl)-pyrazine-2-carboxylic acid (2-piperazin-1-yl-phenyl)-amide]
Pim1 kinase; read-out: IC50 (μM) PIM1
  IC50: < 1 µM
Pim2 kinase; read-out: IC50 (μM) PIM2
  IC50: 1 to 10 µM
Pim3 kinase; read-out: IC50 (μM) PIM3
  IC50: < 1 µM
[1]
  IC50: < 1000 nM
KDR kinase
  IC50: 1 to 10 µM

## Nc1ncc(-c2ccc(N)c(C(=O)Nc3cnccc3N3CCC[C@H](N)C3)n2)cn1 [Example 411, 3-amino-6-(2-amino-pyrimidin-5-yl)-pyridine-2-carboxylic acid ((S)-3-amino-3,4,5,6-tetrahydro-2H-[1,4′]bipyridinyl-3′-yl)-amide]
Pim1 kinase; read-out: IC50 (μM) PIM1
  IC50: < 1 µM
Pim2 kinase; read-out: IC50 (μM) PIM2
  IC50: < 1 µM
Pim3 kinase; read-out: IC50 (μM) PIM3
  IC50: < 1 µM
[1]
  IC50: 10000 to 25000 nM
KDR kinase
  IC50: > 25 µM

## N#Cc1ccc(N2CCCC(N)C2)c(NC(=O)c2nccnc2N)c1 (stereo not shown) [Example 230, 3-amino-N-[2-(3-aminopiperidin-1-yl)-5-cyanophenyl]pyrazine-2-carboxamide]
Pim1 kinase; read-out: IC50 (μM) PIM1
  IC50: < 1 µM
Pim2 kinase; read-out: IC50 (μM) PIM2
  IC50: < 1 µM
Pim3 kinase; read-out: IC50 (μM) PIM3
  IC50: < 1 µM
[1]
  IC50: < 1000 nM
KDR kinase
  IC50: > 25 µM
